Results reported in patent US11285155B2, “Pharmaceutical combinations for treating cancer” (SUPPORT-VENTURE GMBH, priority 2016, dated 2022).
Structures can show the parent of a compound that is named as a salt.

Key:
CT26 wt_LLN cells = experiment: Antitumoral efficacy in orthotopic syngeneic CT26 wt colon carcinoma model; assay type: in vivo, female BALB/c mice; settings: necropsy day 20, pioglitazone HCl 25 mg/kg, pamapimod 100 mg/kg, p.o. once daily days 3-20; for antitumoral efficacy, primary tumor volume vs vehicle control / antitumoral efficacy, primary tumor weight vs vehicle control: alone or combined; for number of animals with metastases: of 12 animals per group, vehicle group six
Protocol: Evaluation of the Antitumoral Efficacy of Pamapimod and Pioglitazone Hydrochloride Alone and in Combination in an Orthotopic Syngeneic CT26 wt Colon Carcinoma Model in Female BALB/c Mice In Vivo The study consisted of 4 experimental groups, each containing 12 female BALB/c mice after randomization (for details, see Table 1 below). On day 0, 0.5×10^5 CT26 wt_LLN cells suspended in 15 μl PBS:Matrigel (1:2) were orthotopically implanted into the caecum of all participating animals. In the following period, primary tumor growth was monitored once weekly on days 2, 9, 15 and 20 using in vivo bioluminescence imaging. On day 2, 48 animals were randomized into 4 groups of 12 animals each according to the current in vivo bioluminescence imaging results (block of four after ranking). For block randomization, a robust automated random number generation within individual blocks was used (MS-Excel 2016). Thereby, detected luciferase signals served as randomization criteria. On the following day (day 3), treatment was initiated in all groups (see Table 1 for details). All treatments were performed at 10 ml/kg 1× daily p.o. on days 3-20. Pioglitazone HCL (25 mg/kg) and pamapimod (100 mg/kg) were administered both alone (Groups 2 and 3, respectively) and in combination (Group 4) once daily p.o. Animals of Group 1 were treated with 10 ml/kg Vehicle Control (0.9% NaCl, 0.5% Methyl Cellulose, 0.4% polysorbate 80, 0.9% benzyl alcohol, pH 4.8) once daily p.o. On day 20, the study was terminated due to tumor burden All animals were sacrificed and a necropsy performed. Primary tumors were collected and wet weights and volumes determined. On day 0, prior to surgery, and 24 h after surgery, all animals received the analgetic Meloxicam (Metacam®; 1 mg/kg) via subcutaneous injection. […] Thereby, cells were carefully injected in between caecum and mesentery. After the caecum had been repositioned, the skin was closed with wound clips. In the following, animal weights were measured three times weekly (Monday, Wednesday and Friday; balance: Mettler Toledo PB602-L). Primary tumor growth was monitored once weekly on days 2, 9, 15 and 20 using in vivo bioluminescence imaging. On day 2, 48 animals were randomized into 4 groups of 12 animals each according to the current in vivo bioluminescence imaging results (block of four after ranking). For block randomization, a robust automated random number generation within individual blocks was used (MS-Excel 2016). Thereby, detected luciferase signals served as randomization criteria. On the following day (day 3), treatment was initiated in all groups (see Table 2 for details). During the course of the study, tumor growth was monitored once weekly on days 2, 9, 15 and 20 using in vivo bioluminescence imaging. For this purpose, 150 mg/kg D-Luciferin were injected intraperitoneally (i.p.) into the mice 7 min before anesthetization. Light emission was measured 10 min post injection with a CCD-camera for 1-5 min using a NightOWL LB 981 bioluminescence imaging system (Berthold Technologies, Germany). On day 20, animals were killed by cervical dislocation. Primary tumors were collected, wet weights and volumes determined. Primary tumor volumes were analyzed using descriptive data analysis (Mean, SEM, Median and interquartile range). Statistical analysis of efficacy data was done using the Mann Whitney test and the unpaired t-test (in parentheses). All data analysis was performed using GraphPad Prism 5 from GraphPad Software, Inc., San Diego, USA.

A549 tumor cells = experiment: Antitumoral efficacy in subcutaneous xenograft A549 lung carcinoma model; assay type: in vivo, female athymic nude mice; settings: necropsy day 46; pioglitazone HCl 10 mg/kg, pamapimod 100 mg/kg, alone or combined, p.o. once daily days 22-45
Protocol: Evaluation of the Antitumoral Efficacy of Pamapimod and Pioglitazone Hydrochloride Alone and in Combination in a Subcutaneous Xenograft A549 Lung Carcinoma Model in Female Athymic Nude Mice In Vivo The study consisted of 4 experimental groups, each containing 10 female athymic nude mice after randomization (for details, see Table 1 below). On day 0, 2×10^6 A549 tumor cells in 100 μl PBS:Matrigel (1:1) were subcutaneously implanted into the left flank of all participating female athymic nude mice. In the following, primary tumor sizes were measured two times weekly (Monday and Friday) by calipering. […] For block randomization, a robust automated random number generation within individual blocks was used (MS-Excel 2003). On the following day (day 22), treatment was initiated in all groups (see Table 1 for details). Pioglitazone HCL (10 mg/kg) and pamapimod (100 mg/kg) were administered both alone (Groups 2 and 3, respectively) and in combination (Group 4) once daily p.o. on days 22-45. Animals of Group 1 were treated with 10 ml/kg Vehicle Control (0.9% NaCl, 0.5% Methyl Cellulose, 0.4% polysorbate 80, 0.9% benzyl alcohol, pH 4.8) once daily p.o. for the same time period. The study was terminated on day 46. All animals were sacrificed and necropsy was performed. Primary tumors were collected and wet weights and volumes determined. On day 0, 2×10^6 A549 tumor cells in 100 μl PBS:Matrigel (1:1) were subcutaneously implanted into the left flank of 54 female athymic nude mice. In the following, animal weights were measured three times weekly (Monday, Wednesday and Friday; balance: Mettler Toledo PB602-L). Primary tumor sizes were measured twice weekly by calipering (manual caliper, OMC Fontana). Tumor sizes were calculated according to the formula W^2×L/2 (L=length and W=the perpendicular width of the tumor, L>W). […] For block randomization, a robust automated random number generation within individual blocks was used (MS-Excel 2003). On the following day (day 22), treatment was initiated in all groups (see Table 1 for details). At necropsy, animals were weighed and killed by cervical dislocation. Primary tumors were collected and wet weights and volumes determined. Primary tumor volumes were analyzed using descriptive data analysis (Mean, SEM, Median and interquartile range). Statistical analysis of efficacy data was done using the Mann Whitney test and the unpaired t-test (in parentheses). All data analysis was performed using GraphPad Prism 5 from GraphPad Software, Inc., San Diego, USA.

Structure (SMILES) | antitumoral efficacy, primary tumor volume vs vehicle control (CT26 wt_LLN cells) | antitumoral efficacy, primary tumor weight vs vehicle control (CT26 wt_LLN cells) | number of animals with metastases (CT26 wt_LLN cells) | primary tumor volume vs vehicle control (A549 tumor cells) | primary tumor weight vs vehicle control (A549 tumor cells)
Cn1c(=O)c(Oc2ccc(F)cc2F)cc2cnc(NC(CCO)CCO)nc21 [pamapimod, 6-(2,4-Difluorophenoxy)-2-[3-hydroxy-1-(2-hydroxyethyl)-propylamino]-8-methyl-8H-pyrido[2,3-d]pyrimidin-7-one] | significant in case of primary tumor volumes | just beyond significance in case of primary tumor weights | 2 animals | noticeable decrease in both tumor volumes and tumor weights which was significant for tumor volume | nearly significant for tumor weight
CCc1ccc(CCOc2ccc(CC3SC(=O)NC3=O)cc2)nc1 (stereo not shown) [pioglitazone HCl, pioglitazone hydrochloride] | no antitumoral efficacy | no antitumoral efficacy | four | noticeable reduction in both tumor volumes and tumor weights compared to control which approached statistical significance | noticeable reduction in both tumor volumes and tumor weights compared to control which approached statistical significance
